Data as given in US20020147217A1, “The treatment of sexual dysfunction with enantiomers” (R.T. Alamo Ventures I, L.L.C., priority 2001, published 2002).
Structures can show the parent of a compound that is named as a salt. Where two headings read alike, the source gives them in different places.

Key:
[1] = target: T1, PDE6 partially purified from bovine retinal rod (Bos taurus, UniProt P11541+P23439); assay: PDE6 inhibition assay, Viagra versus racemic flosequinan (Example 1); assay type: biochemical
T1 construct: from tissue; host or cells: bovine retinal rod
T1 sequence (P11541 2-856 limits assumed): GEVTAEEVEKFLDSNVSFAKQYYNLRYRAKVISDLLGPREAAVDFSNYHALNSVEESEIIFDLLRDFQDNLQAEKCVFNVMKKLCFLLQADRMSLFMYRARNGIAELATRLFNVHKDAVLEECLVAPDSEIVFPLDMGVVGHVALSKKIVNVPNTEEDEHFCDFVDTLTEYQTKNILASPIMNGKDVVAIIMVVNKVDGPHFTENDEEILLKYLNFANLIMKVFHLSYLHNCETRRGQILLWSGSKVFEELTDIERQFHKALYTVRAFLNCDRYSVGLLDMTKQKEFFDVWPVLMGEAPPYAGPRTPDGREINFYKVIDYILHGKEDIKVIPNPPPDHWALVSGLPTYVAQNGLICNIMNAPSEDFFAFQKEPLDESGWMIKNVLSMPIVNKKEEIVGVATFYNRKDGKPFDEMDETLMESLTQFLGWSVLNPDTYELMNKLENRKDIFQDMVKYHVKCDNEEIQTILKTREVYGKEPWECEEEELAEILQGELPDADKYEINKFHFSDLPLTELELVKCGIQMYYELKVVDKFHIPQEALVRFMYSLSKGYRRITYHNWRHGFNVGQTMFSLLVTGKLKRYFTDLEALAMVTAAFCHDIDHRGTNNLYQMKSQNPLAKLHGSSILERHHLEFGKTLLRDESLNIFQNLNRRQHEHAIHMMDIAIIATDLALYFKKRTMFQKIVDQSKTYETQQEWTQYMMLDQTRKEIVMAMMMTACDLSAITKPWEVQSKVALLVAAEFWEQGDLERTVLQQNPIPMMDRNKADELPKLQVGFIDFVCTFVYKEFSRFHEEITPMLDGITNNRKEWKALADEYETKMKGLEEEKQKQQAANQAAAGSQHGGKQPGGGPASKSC
T1 sequence (P23439 2-850 limits assumed): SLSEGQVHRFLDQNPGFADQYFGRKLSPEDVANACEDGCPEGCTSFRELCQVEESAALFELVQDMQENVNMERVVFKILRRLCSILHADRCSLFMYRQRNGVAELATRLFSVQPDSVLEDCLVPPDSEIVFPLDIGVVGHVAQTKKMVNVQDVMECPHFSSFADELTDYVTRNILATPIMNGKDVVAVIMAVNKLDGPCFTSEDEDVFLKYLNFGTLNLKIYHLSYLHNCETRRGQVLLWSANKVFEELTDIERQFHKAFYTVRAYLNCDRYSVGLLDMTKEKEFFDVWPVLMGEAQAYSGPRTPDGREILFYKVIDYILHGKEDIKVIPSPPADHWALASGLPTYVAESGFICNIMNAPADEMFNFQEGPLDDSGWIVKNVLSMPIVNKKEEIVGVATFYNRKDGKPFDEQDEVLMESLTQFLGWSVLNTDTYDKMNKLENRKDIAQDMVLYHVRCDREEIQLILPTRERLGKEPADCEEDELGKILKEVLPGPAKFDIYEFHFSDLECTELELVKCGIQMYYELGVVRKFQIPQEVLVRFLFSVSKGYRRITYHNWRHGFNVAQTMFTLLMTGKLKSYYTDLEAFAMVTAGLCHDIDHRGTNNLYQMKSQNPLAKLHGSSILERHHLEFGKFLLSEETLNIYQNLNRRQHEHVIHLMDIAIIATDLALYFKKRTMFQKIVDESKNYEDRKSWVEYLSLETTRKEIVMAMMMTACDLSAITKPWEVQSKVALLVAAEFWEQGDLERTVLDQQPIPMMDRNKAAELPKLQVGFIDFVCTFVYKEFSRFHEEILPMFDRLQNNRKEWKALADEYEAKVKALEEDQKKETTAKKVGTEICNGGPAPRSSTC
Description: PDE6 partially purified from bovine retinal rod and activated by trypsin was used. In four separate reactions, Viagra at molar concentrations of 0.3 μM, 1.0 μM, and 3.0 μM, and a 100 μM racemic mixture of flosequinan were incubated with 0.2 μg/ml active PDE6 and 100 μM cGMP containing 0.1 μM [^3H]cGMP in Tris buffer pH 7.5 for 20 minutes at 30° C. Each reaction was terminated by raising the temperature to 100° C. for 2 minutes. The resulting GMP was converted to guanosine by addition of 10 mg/ml snake venom nucleotidase and further incubated at 30° C. for 10 minutes. Unhydrolyzed cGMP was bound to AGI-X2 resin, and [^3H]guanosine remaining in the aqueous phase was quantitated by scintillation counting.

[2] = target: T2, PDE1 partially purified from bovine heart (Bos taurus, UniProt P14100); assay: PDE1 enzyme inhibition assay (Example 3); assay type: biochemical
T2 construct: PDE1 partially purified from bovine heart was used; from tissue; host or cells: bovine heart
Description: (§1) In this example, a racemic mixture of flosequinan and the (+) and (−) enantiomers of flosequinan were subjected to biochemical enzyme assays to determine their respective percent inhibition of a variety of phosphodiesterases (PDE1-PDE6). The reaction conditions for each PDE assay were as follows.
(§2) PDE1: PDE1 partially purified from bovine heart was used. A racemic mixture of flosequinan, and each enantiomer of flosequinan, all at a molar concentration of 100 μM, were independently incubated with 13 μg PDE1 enzyme, 1.0 μM [^3H]cAMP and CaCl2/calmodulin in Tris buffer pH 7.5 for 20 minutes at 30° C. The reaction was terminated by boiling for 2 minutes, and the resulting AMP was converted to adenosine by addition of 10 mg/ml snake venom nucleotidase and further incubation at 30° C. for 10 minutes. Unhydrolyzed cAMP was bound to AGI-X2 resin, and the remaining [^3H]adenosine in the aqueous phase was quantitated by scintillation counting.

[3] = target: T3, PDE2 partially purified from human platelets (Homo sapiens, UniProt O00408); assay: PDE2 enzyme inhibition assay (Example 3); assay type: biochemical; settings: for % Inhibition of PDE2: 100 μM
T3 construct: PDE2 partially purified from human platelets was used; from tissue; host or cells: human platelets
Description: as §1
as §2, with “PDE2: PDE2” for “PDE1: PDE1”, “human platelets” for “bovine heart”, “23” for “13”, “PDE2” for “PDE1”, “25 μM cAMP containing 0.05” for “1.0”, “[^3H]cAMP” for “[^3H]cAMP and CaCl2/calmodulin”

[4] = target: T4, PDE3 partially purified from human platelets (Homo sapiens, UniProt Q14432); assay: PDE3 enzyme inhibition assay (Example 3); assay type: biochemical
T4 construct: PDE3 partially purified from human platelets was used; from tissue; host or cells: human platelets
Description: as §1
as §2, with “PDE3: PDE3” for “PDE1: PDE1”, “human platelets” for “bovine heart”, “PDE3 enzyme and 1 μM cAMP containing 0.01” for “PDE1 enzyme, 1.0”, “[^3H]cAMP” for “[^3H]cAMP and CaCl2/calmodulin”

[5] = tested on: PDE4 partially purified from human U-937 pronocytic cells; assay: PDE4 enzyme inhibition assay (Example 3); assay type: biochemical; settings: 100 μM
Description: as §1
as §2, with “PDE4: PDE4” for “PDE1: PDE1”, “human U-937 pronocytic cells” for “bovine heart”, “20” for “13”, “PDE4 enzyme and 1 μM cAMP containing 0.01” for “PDE1 enzyme, 1.0”, “[^3H]cAMP” for “[^3H]cAMP and CaCl2/calmodulin”

[6] = target: T5, PDE5 partially purified from human platelets (Homo sapiens, UniProt O76074); assay: PDE5 enzyme inhibition assay (Example 3); assay type: biochemical; settings: for % Inhibition of PDE5: 100 μM
T5 construct: PDE5 partially purified from human platelets was used; from tissue; host or cells: human platelets
Description: as §1
PDE5: PDE5 partially purified from human platelets was used. A racemic mixture of flosequinan, and each enantiomer of flosequinan, all at a molar concentration of 100 μM, were independently incubated with 120 μg PDE5 enzyme and 1 μM cGMP containing 0.01 μM [^3H]cGMP in Tris buffer pH 7.5 for 20 minutes at 30° C. The reaction was terminated by boiling for 2 minutes, and the resulting GMP was converted to guanosine by addition of 10 mg/ml snake venom nucleotidase and further incubation at 30° C. for 10 minutes. Unhydrolyzed cGMP was bound to AGI-X2 resin, and the remaining [^3H]guanosine in the aqueous phase was quantitated by scintillation counting.

[7] = target: T1, PDE6 partially purified from bovine retinal rod; assay: PDE6 enzyme inhibition assay (Example 3); assay type: biochemical; settings: for % Inhibition of PDE6: 100 μM
Description: as §1
PDE6: PDE6 partially purified from bovine retinal rod and activated by trypsin was used. A racemic mixture of flosequinan, and each enantiomer of flosequinan, all at a molar concentration of 100 μM, were independently incubated with 0.2 μg/ml active PDE6 and 100 μM cGMP containing 0.1 μM [^3H]cGMP in Tris buffer pH 7.5 for 20 minutes at 30° C. Each reaction was terminated by boiling for 2 minutes. The resulting GMP was converted to guanosine by addition of 10 mg/ml snake venom nucleotidase, and further incubated at 30° C. for 10 minutes. Unhydrolyzed cGMP was bound to AGI-X2 resin, and [^3H]guanosine remaining in the aqueous phase was quantitated by scintillation counting.

[8] = in vivo, po
[9] = Plasma levels following oral administration

T2 sequence (P14100 1-514 isoform P14100-2): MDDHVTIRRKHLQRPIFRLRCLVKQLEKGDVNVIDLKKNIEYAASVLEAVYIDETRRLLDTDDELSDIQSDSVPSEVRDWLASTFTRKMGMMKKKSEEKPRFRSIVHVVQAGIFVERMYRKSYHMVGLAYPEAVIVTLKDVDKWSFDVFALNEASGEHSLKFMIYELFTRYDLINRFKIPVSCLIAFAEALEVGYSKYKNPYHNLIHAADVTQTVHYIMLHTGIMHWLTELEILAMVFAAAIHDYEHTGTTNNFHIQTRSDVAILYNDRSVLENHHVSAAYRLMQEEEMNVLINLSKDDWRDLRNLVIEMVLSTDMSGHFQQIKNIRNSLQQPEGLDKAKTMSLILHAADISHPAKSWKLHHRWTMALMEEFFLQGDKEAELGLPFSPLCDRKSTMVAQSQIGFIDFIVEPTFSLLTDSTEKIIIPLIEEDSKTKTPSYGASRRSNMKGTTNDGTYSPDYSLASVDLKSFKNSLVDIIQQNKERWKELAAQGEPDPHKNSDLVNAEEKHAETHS
T3 sequence (O00408 whole entry): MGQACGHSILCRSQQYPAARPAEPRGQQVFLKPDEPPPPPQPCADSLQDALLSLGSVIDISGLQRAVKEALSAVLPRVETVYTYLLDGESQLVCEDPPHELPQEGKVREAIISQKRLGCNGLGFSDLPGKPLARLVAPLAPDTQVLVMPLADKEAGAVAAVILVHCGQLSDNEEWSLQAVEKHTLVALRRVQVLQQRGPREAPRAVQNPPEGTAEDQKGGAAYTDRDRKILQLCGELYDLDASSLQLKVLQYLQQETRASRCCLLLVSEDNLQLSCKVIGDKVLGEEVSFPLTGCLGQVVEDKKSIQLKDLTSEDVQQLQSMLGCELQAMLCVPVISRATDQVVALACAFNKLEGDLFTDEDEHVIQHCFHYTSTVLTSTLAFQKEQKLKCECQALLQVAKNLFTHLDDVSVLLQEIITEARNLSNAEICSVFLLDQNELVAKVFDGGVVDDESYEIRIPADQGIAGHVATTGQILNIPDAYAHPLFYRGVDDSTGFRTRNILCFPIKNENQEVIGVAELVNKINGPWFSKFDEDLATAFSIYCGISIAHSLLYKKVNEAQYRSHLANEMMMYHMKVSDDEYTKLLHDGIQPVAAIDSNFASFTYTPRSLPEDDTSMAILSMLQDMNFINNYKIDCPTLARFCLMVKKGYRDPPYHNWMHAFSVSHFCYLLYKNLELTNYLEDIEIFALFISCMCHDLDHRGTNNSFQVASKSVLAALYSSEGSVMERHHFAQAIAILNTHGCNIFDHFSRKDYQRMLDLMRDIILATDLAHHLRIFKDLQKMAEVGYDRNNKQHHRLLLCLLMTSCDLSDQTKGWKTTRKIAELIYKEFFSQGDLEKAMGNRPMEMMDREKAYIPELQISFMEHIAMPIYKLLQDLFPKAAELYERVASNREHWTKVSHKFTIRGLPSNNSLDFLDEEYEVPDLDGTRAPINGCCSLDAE
T4 sequence (Q14432 whole entry): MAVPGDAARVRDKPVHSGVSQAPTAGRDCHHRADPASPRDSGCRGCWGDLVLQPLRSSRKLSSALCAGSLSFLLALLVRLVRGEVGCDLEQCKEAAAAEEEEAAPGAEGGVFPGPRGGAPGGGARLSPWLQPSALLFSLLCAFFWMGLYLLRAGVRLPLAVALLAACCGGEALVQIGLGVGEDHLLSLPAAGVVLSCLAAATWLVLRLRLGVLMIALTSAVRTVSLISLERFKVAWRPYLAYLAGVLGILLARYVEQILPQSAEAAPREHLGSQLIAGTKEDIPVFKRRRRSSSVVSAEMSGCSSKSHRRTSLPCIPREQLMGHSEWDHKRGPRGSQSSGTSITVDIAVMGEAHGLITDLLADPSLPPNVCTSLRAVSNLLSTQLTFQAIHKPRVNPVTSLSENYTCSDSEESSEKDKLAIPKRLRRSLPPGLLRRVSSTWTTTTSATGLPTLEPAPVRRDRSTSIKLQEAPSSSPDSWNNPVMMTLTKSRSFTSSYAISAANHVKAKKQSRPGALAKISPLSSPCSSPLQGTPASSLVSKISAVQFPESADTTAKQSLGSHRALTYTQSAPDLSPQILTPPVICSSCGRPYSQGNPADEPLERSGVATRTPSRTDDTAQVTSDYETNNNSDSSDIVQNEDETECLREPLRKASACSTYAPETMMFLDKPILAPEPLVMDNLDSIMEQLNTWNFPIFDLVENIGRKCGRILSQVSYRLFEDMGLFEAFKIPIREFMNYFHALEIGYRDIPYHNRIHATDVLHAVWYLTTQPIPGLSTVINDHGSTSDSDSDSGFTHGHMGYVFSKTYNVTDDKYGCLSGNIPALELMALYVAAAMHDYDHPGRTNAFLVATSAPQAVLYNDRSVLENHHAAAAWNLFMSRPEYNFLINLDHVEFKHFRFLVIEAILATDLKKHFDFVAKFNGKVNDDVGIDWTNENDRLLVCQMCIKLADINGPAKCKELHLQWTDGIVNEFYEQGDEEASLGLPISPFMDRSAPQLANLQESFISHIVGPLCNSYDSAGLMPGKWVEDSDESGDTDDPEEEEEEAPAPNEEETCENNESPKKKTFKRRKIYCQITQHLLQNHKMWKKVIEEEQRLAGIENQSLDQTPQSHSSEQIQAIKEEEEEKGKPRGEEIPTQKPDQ

In the case of `Cn1cc([S+](C)[O-])c(=O)c2ccc(F)cc21` (racemic) [Flosequinan, 7-fluoro-1-methyl-3-(methylsulphinyl)-4(1H)-quinolone, reference compound], the inhibition at 100 µM ([1]; 100 μM compound) is reported as 36%, the IC50 ([1]; read-out: Concentration required for around 50% inhibition of PDE6) is reported as over 100 µM and the “Times more compound on a molar basis than Viagra needed for around 50% PDE6 inhibition” value ([1]; versus Viagra 0.3 μM) is reported as “more than 300 times”. It also gave an inhibition at 100 µM [2] of 31%, an inhibition at 100 µM [3] of 18% and an inhibition at 100 µM ([4]; 100 μM) of 26%. The “% Inhibition of PDE4” value [5] was 24%, the inhibition at 100 µM [6] was 11% and the inhibition at 100 µM [7] was 21%.
With `Cn1cc([S+](C)[O-])c(=O)c2ccc(F)cc21` (single isomer, unassigned; (-)) [(−)-flosequinan] the “% Inhibition of PDE1” value ([2]; 100 μM) was 11%, the “% Inhibition of PDE2” value [3] was 13% and the “% Inhibition of PDE3” value ([4]; 100 μM) was 5%. The “% Inhibition of PDE4” value [5] was 1%, the “% Inhibition of PDE5” value [6] was 10% and the “% Inhibition of PDE6” value [7] was 21%.
In the case of `Cn1cc([S@@+](C)[O-])c(=O)c2ccc(F)cc21` [(+)-flosequinan], the “% Inhibition of PDE1” value ([2]; 100 μM) is reported as 28%, the “PDE1 inhibitory activity compared with the (−) enantiomer” value ([2]; 100 μM) is reported as “more PDE1 and PDE3 inhibitory activity” and the “% Inhibition of PDE2” value [3] is reported as 18%. For the same molecule, the “% Inhibition of PDE3” value ([4]; 100 μM) was 32%, the “PDE3 inhibitory activity compared with the (−) enantiomer” value ([4]; 100 μM) was “more PDE1 and PDE3 inhibitory activity” and the “Increase in PDE3 inhibition compared to the (−) enantiomer” value ([4]; same molar concentration) was “eight-fold”. For the same molecule, the “PDE3 inhibition compared with racemic mixture of flosequinan” value ([4]; same molar concentration) was “greater inhibition of PDE3 than a racemic mixture of flosequinan”, the “% Inhibition of PDE4” value [5] was 6% and the “% Inhibition of PDE5” value [6] was 17%. The “% Inhibition of PDE6” value [7] was 22% and the “Time of peak plasma concentration” value [8] was 1 to 2 h.
In the case of `CCCc1nn(C)c2c(=O)[nH]c(-c3cc(S(=O)(=O)N4CCN(C)CC4)ccc3OCC)nc12` [Viagra, Sildenafil citrate], the inhibition at 0.3 µM ([1]; read-out: % Inhibition of PDE6, 0.3 μM compound) is reported as about 50%, the inhibition at 1 µM ([1]; read-out: % Inhibition of PDE6, 1.0 μM compound) is reported as 62% and the inhibition at 3 µM ([1]; read-out: % Inhibition of PDE6, 3.0 μM compound) is reported as 87%.
For `CSc1cn(C)c2cc(F)ccc2c1=O` [metabolite], the “Time of peak plasma concentration” value [9] was “about seven”.
